Data published in PubChem BioAssay AID2060483 (Molecular Pharmacology Branch, DTP, NCI, 2025).

Tested on: K24384-001-R-PDC complex spheroids, viability
Assay: Anticancer human tumor K24384-001-R-PDC patient-derived pancreatic adenocarcinoma cell line growth inhibition [GQUAD]
Conditions: for IC50: curve of first compound; for viability, T/C: stronger effect = lower value
Text: DNA G-quadruplex Stabilizer Agents in Combinations in Complex Spheroids
A high-throughput screen of multi-cell type tumor spheroids was designed to identify active combinations of DNA G-quadruplex stabilizer agents and targeted small molecules. Complex spheroids include a stromal component modeled by human endothelial cells (HUVEC) and fibroblasts modeled by human mesenchymal stem cells (MSCs). The concentration ranges selected for each drug and investigational agent were based upon clinically achievable concentrations if the clinical Cmax of the agent was known.
Compounds. The drugs and investigational agents: pidnarulex (CX-5461; NSC782164), APTO-253 (NSC789042), BRACO-19 (NSC847499), peposertib (NSC802822), ceralasertib (NSC780249), elimusertib (NSC800525), camonsertib (NSC841442), AZD-1390 (NSC803789), olaparib (NSC753686), talazoparib (NSC767125), ART-558 (NSC835418), sotorasib (NSC818433), MRTX-1133 (NSC836407), SN-38 (NSC673596), topotecan (NSC609699), etoposide (NSC141540), doxorubicin (NSC123127), gemcitabine (NSC613327), 5-fluorouracil (NSC19893), paclitaxel (NSC125973), vemurafenib (NSC761431), panobinostat (NSC761190), R-306465 (JNJ-16241199; NSC773264), adavosertib (NSC754352), TP-3654 (NSC805149), carboplatin (NSC241240), KSQ-4279 (NSC840948), and staurosporine (NSC755774) were obtained from the National Cancer Institute (NCI) Developmental Therapeutics Program Chemical Repository (34). The FDA-approved anticancer drug set is available from the NCI Developmental Therapeutics Program. […] The stock solutions were prepared in dimethyl sulfoxide (DMSO, Sigma-Aldrich, St. Louis, MO, cat. D2650) at 800-fold the tested concentration and stored at -70 degrees C prior to their use. All drugs and investigational agents were tested over a range starting from a high concentration at or near the clinical Cmax and decreasing in half-log increments. If the clinical Cmax for an agent had not been determined, the highest concentration tested was 10 microM.
2.3 Cell Culture. All cells were maintained in an incubator at 37 degrees C and 5% CO2 with 95% humidity. The PDC lines were cultured according to standard operating procedures established by the NCI PDMR. All PDCs were thawed and cultured in Matrigel-coated flasks prepared with a working solution of 1X Ham's F-12 nutrient mix, without supplementation (Invitrogen, cat. 11765054), 100 U/mL penicillin-streptomycin (Invitrogen, cat. 15140122), and 2.5% Matrigel (Corning Inc., cat. 354248) for the first three passages. The 857933-349-R-J2-PDC line was cultured in 6C/Colon 1B media, which includes advanced DMEM/F-12 (Thermo Fisher Scientific, cat. 12634028), 10 mM HEPES (Thermo Fisher Scientific, cat. 15630080), 1X GlutaMAX supplement (Thermo Fisher Scientific, cat. 35050061), 0.1 mg/mL primocin (InvivoGen, cat. ant-pm-2), 10% defined fetal bovine serum, heat inactivated (HyClone Laboratories Inc., cat. SH30070.03HI), 50% L-WRN conditioned media (ATCC, cat. CRL-3276), 1.25 mM N-Acetyl-L-cysteine (Sigma-Aldrich, cat. A9165), 10 mM nicotinamide (Sigma-Aldrich, cat. N0636), 1X B-27 supplement (Thermo Fisher Scientific, cat. 17504044), 1X N-2 supplement (Thermo Fisher Scientific, cat. 17502048), 10 microM Y-27632 dihydrochloride (Tocris Bioscience, cat. 1254), and 50 ng/mL human EGF recombinant protein (Thermo Fisher Scientific, cat. PHG0311). The 485176-168-R4-J1-PDC line was cultured in Panc media, which includes all 6C/Colon 1B media components plus 100 ng/mL human FGF-10 (Thermo Fisher Scientific, cat. 100-26), 500 nM SB-431542 (Selleckchem, cat. S1067), and gastrin (Tocris, cat. 3006).
[…]

[1] = second compound 0.0316 µM, first compound 0.0316 µM
[2] = second compound 0.0316 µM, first compound 0.316 µM
[3] = second compound 0.1 µM, first compound 0.0316 µM
[4] = second compound 0.1 µM, first compound 0.316 µM
[5] = second compound 0.316 µM, first compound 0.0316 µM
[6] = second compound 0.316 µM, first compound 0.316 µM
[7] = second compound 1 µM, first compound 0.0316 µM
[8] = second compound 1 µM, first compound 0.316 µM
[9] = second compound 3.16 µM, first compound 0.0316 µM
[10] = second compound 3.16 µM, first compound 0.316 µM
[11] = second compound 10 µM, first compound 0.0316 µM
[12] = second compound 10 µM, first compound 0.316 µM
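Further: spheroids exposed to compounds for seven days.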

Q: Which results are given for `Cc1cccc(N(C)C(=O)C2C(O)CCN2c2nc(C)cc(C(F)(F)F)c2C#N)c1` (centres undefined) + Cc1cnc(CNC(=O)c2c(=O)c3ccc(N4CCCN(C)CC4)nc3n3c2sc2ccccc23)cn1?
A: IC50 (second compound 0.0316 µM): > 10 µM; IC50 (second compound 0.1 µM): > 10 µM; IC50 (second compound 0.316 µM): 0.0316 µM; IC50 (second compound 1 µM): < 0.0316 µM; IC50 (second compound 3.16 µM): < 0.0316 µM; IC50 (second compound 10 µM): < 0.0316 µM; viability, T/C [1]: 105%; viability, T/C (second compound 0.0316 µM, first compound 0.1 µM): 81.5%; viability, T/C [2]: 86.5%; viability, T/C (second compound 0.0316 µM, first compound 1 µM): 74.2%; viability, T/C (second compound 0.0316 µM, first compound 3.16 µM): 95.6%; viability, T/C (second compound 0.0316 µM, first compound 10 µM): 107%; viability, T/C [3]: 70%; viability, T/C (second compound 0.1 µM, first compound 0.1 µM): 73.8%; viability, T/C [4]: 57.7%; viability, T/C (second compound 0.1 µM, first compound 1 µM): 69.6%; viability, T/C (second compound 0.1 µM, first compound 3.16 µM): 72.9%; viability, T/C (second compound 0.1 µM, first compound 10 µM): 71.6%; viability, T/C [5]: 53.3%; viability, T/C (second compound 0.316 µM, first compound 0.1 µM): 56%; viability, T/C [6]: 49.2%; viability, T/C (second compound 0.316 µM, first compound 1 µM): 57.4%; viability, T/C (second compound 0.316 µM, first compound 3.16 µM): 74.9%; viability, T/C (second compound 0.316 µM, first compound 10 µM): 55.8%; viability, T/C [7]: 44.1%; viability, T/C (second compound 1 µM, first compound 0.1 µM): 44.4%; viability, T/C [8]: 50.5%; viability, T/C (second compound 1 µM, first compound 1 µM): 44.6%; viability, T/C (second compound 1 µM, first compound 3.16 µM): 57.5%; viability, T/C (second compound 1 µM, first compound 10 µM): 41.7%; viability, T/C [9]: 38.1%; viability, T/C (second compound 3.16 µM, first compound 0.1 µM): 42%; viability, T/C [10]: 41.3%; viability, T/C (second compound 3.16 µM, first compound 1 µM): 49.3%; viability, T/C (second compound 3.16 µM, first compound 3.16 µM): 39.9%; viability, T/C (second compound 3.16 µM, first compound 10 µM): 41.5%; viability, T/C [11]: 40.6%; viability, T/C (second compound 10 µM, first compound 0.1 µM): 37.4%; viability, T/C [12]: 43.3%; viability, T/C (second compound 10 µM, first compound 1 µM): 44.4%; viability, T/C (second compound 10 µM, first compound 3.16 µM): 26.2%; viability, T/C (second compound 10 µM, first compound 10 µM): 36.4%

Q: Which IC50 (second compound 0.0316 µM) does the source give for `Cn1ncnc1[C@H]1c2n[nH]c(=O)c3cc(F)cc(c23)N[C@@H]1c1ccc(F)cc1` + Cc1cnc(CNC(=O)c2c(=O)c3ccc(N4CCCN(C)CC4)nc3n3c2sc2ccccc23)cn1 here?
A: Its IC50 is greater than 0.316 µM.

Q: And the IC50 (second compound 0.1 µM)?
A: The IC50 was greater than 0.316 µM.

Q: What about the IC50 (second compound 0.316 µM) of the same molecule?
A: Its IC50 is greater than 0.316 µM.

Q: And the IC50 (second compound 1 µM)?
A: The IC50 was less than 0.000999 µM.

Q: What about the IC50 (second compound 3.16 µM) of the same molecule?
A: The IC50 was less than 0.000999 µM.

Q: What about the IC50 (second compound 10 µM) of the same molecule?
A: The IC50 was less than 0.000999 µM.

Q: What about the viability, T/C (second compound 0.0316 µM, first compound 0.000999 µM) of the same molecule?
A: Its viability, T/C is 93.1%.

Q: And the viability, T/C (second compound 0.0316 µM, first compound 0.00316 µM)?
A: Its viability, T/C is 80.8%.

Q: And the viability, T/C (second compound 0.0316 µM, first compound 0.00999 µM)?
A: The viability, T/C was 92.5%.

Q: And the viability, T/C [1]?
A: Its viability, T/C is 81.9%.

Q: And the viability, T/C (second compound 0.0316 µM, first compound 0.0999 µM)?
A: Its viability, T/C is 87.2%.

Q: What about the viability, T/C [2] of the same molecule?
A: Its viability, T/C is 105%.

Q: And the viability, T/C (second compound 0.1 µM, first compound 0.000999 µM)?
A: The viability, T/C was 69.1%.

Q: What about the viability, T/C (second compound 0.1 µM, first compound 0.00316 µM) of the same molecule?
A: The viability, T/C was 76%.

Q: And the viability, T/C (second compound 0.1 µM, first compound 0.00999 µM)?
A: Its viability, T/C is 53.6%.

Q: What about the viability, T/C [3] of the same molecule?
A: Its viability, T/C is 68.6%.

Q: What about the viability, T/C (second compound 0.1 µM, first compound 0.0999 µM) of the same molecule?
A: The viability, T/C was 72.8%.

Q: What about the viability, T/C [4] of the same molecule?
A: Its viability, T/C is 86.9%.

Q: And the viability, T/C (second compound 0.316 µM, first compound 0.000999 µM)?
A: Its viability, T/C is 52.5%.

Q: What about the viability, T/C (second compound 0.316 µM, first compound 0.00316 µM) of the same molecule?
A: The viability, T/C was 63.1%.

Q: And the viability, T/C (second compound 0.316 µM, first compound 0.00999 µM)?
A: Its viability, T/C is 50.6%.

Q: What about the viability, T/C [5] of the same molecule?
A: The viability, T/C was 50.5%.

Q: And the viability, T/C (second compound 0.316 µM, first compound 0.0999 µM)?
A: Its viability, T/C is 53.5%.

Q: And the viability, T/C [6]?
A: The viability, T/C was 58.1%.

Q: What about the viability, T/C (second compound 1 µM, first compound 0.000999 µM) of the same molecule?
A: Its viability, T/C is 44.6%.

Q: What about the viability, T/C (second compound 1 µM, first compound 0.00316 µM) of the same molecule?
A: Its viability, T/C is 50.3%.

Q: And the viability, T/C (second compound 1 µM, first compound 0.00999 µM)?
A: The viability, T/C was 43.6%.

Q: What about the viability, T/C [7] of the same molecule?
A: Its viability, T/C is 48.6%.

Q: And the viability, T/C (second compound 1 µM, first compound 0.0999 µM)?
A: Its viability, T/C is 62.6%.

Q: What about the viability, T/C [8] of the same molecule?
A: Its viability, T/C is 42%.

Q: What about the viability, T/C (second compound 3.16 µM, first compound 0.000999 µM) of the same molecule?
A: The viability, T/C was 43.4%.

Q: And the viability, T/C (second compound 3.16 µM, first compound 0.00316 µM)?
A: Its viability, T/C is 45.2%.

Q: And the viability, T/C (second compound 3.16 µM, first compound 0.00999 µM)?
A: Its viability, T/C is 43.5%.

Q: And the viability, T/C [9]?
A: Its viability, T/C is 44.7%.

Q: What about the viability, T/C (second compound 3.16 µM, first compound 0.0999 µM) of the same molecule?
A: Its viability, T/C is 47.8%.

Q: And the viability, T/C [10]?
A: The viability, T/C was 39%.

Q: And the viability, T/C (second compound 10 µM, first compound 0.000999 µM)?
A: The viability, T/C was 42.8%.

Q: What about the viability, T/C (second compound 10 µM, first compound 0.00316 µM) of the same molecule?
A: Its viability, T/C is 40.2%.

Q: What about the viability, T/C (second compound 10 µM, first compound 0.00999 µM) of the same molecule?
A: Its viability, T/C is 37.7%.

Q: What about the viability, T/C [11] of the same molecule?
A: Its viability, T/C is 46.3%.

Q: And the viability, T/C (second compound 10 µM, first compound 0.0999 µM)?
A: The viability, T/C was 26.6%.

Q: And the viability, T/C [12]?
A: The viability, T/C was 32.8%.
